Patent publication US20050250090A1, “Assay systems and methods for detecting molecules that interact with SK2 channels” (priority 2003, published 2005)
Bridge positions count the residues as written; N and C are the ends. Peptide text beside a SMILES is read from it.

Target: hSK2A^+ (Homo sapiens, UniProt Q9H2S1, DUP58-58)
Experiment: Membrane potential sensitive dye fluorescence assay (FLIPR384) in tsA201 cells stably expressing SK2
Format: cell-based
Conditions: for Hill coefficient (nH): inhibition of ATP/Tg induced decrease in fluorescence, FIG. 9; for effect on the fluorescence signals (responses to ATP/Tg and Cs+): 10 minutes incubation
Method: These cells were plated in a black optical bottom 384 well assay plate at a density of 8×10^6 cells/plate. […] After a 30-minute incubation in the voltage sensitive dye, the cell plate was transferred to a fluorescence plate reader (FLIPR384™, Molecular Devices), and ten baseline fluorescence readings were obtained.
Intracellular Ca^2+ levels of the cells were raised by addition of ATP (200 μM final concentration) and thapsigargin (1 μM final concentration). […] In FIG. 8, time is represented in seconds on the X-axis, and fluorescence is represented in au on the Y-axis. ATP/Tg addition is indicated at time 1, and CsCl addition is indicated at time II.
The magnitude of the ATP/Tg induced decrease in fluorescence was measured in the presence of each of a panel of known SK2 inhibitors. […]

Sequence of hSK2A^+ (Q9H2S1 with tags, fused parts or gaps DUP58-58): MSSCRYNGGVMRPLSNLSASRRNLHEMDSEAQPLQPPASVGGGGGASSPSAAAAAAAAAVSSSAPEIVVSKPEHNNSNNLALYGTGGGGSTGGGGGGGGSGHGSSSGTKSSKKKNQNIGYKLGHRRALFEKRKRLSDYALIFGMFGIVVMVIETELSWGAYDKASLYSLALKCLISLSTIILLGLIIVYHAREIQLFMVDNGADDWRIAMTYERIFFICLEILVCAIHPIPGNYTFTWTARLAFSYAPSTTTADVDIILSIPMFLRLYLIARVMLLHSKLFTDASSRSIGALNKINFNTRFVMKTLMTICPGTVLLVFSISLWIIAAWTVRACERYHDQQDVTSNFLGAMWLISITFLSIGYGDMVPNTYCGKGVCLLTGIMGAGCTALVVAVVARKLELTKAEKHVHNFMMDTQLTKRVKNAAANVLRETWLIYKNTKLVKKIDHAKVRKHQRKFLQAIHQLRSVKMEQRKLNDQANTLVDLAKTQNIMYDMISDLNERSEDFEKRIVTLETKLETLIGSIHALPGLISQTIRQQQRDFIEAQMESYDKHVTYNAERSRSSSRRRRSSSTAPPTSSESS

Compound	Hill coefficient (nH)	effect on the fluorescence signals (responses to ATP/Tg and Cs+) (tested at 833 nM)	other results
O=c1[nH]c2cc(C(F)(F)F)ccc2n1-c1cc(C(F)(F)F)ccc1O [NS1619]	2		
C[N+]1(C)CCc2cc3c(cc2[C@H]1[C@@H]1OC(=O)c2c1ccc1c2OCO1)OCO3.[Br-] [bicuculline methobromide]	1		
CC(N/C(=N\C#N)Nc1ccncc1)C(C)(C)C (centres unmarked) [pinacidil]			effect on the fluorescence signals (responses to ATP/Tg and Cs+) (tested at 286 μM): no effect
C=C[C@H]1C[N@@]2CC[C@H]1C[C@@H]2[C@@H](O)c1ccnc2ccc(OC)cc12 [quinidine]	0.6		
CC[C@H](C)[C@@H]1NC(=O)[C@@H]2CSSC[C@H](NC(=O)[C@H](Cc3ccccc3)NC(=O)[C@H](C)N)C(=O)N[C@@H](CC(N)=O)C(=O)N[C@@H](CC(C)C)C(=O)N[C@@H](CCCNC(=N)N)C(=O)N[C@@H](CCSC)C(=O)N[C@H]3CSSC[C@H](NC(=O)[C@H](CCCCN)NC(=O)[C@H](CC(=O)O)NC(=O)CNC1=O)C(=O)N[C@@H](CCC(=O)O)C(=O)N[C@H](C(=O)N[C@H](C(=O)N[C@@H](CCCCN)C(=O)N[C@@H](Cc1c[nH]cn1)C(N)=O)C(C)C)CSSC[C@H](NC(=O)[C@H](CO)NC(=O)[C@H](CC(C)C)NC(=O)[C@H](CCC(N)=O)NC3=O)C(=O)N[C@@H](CCCNC(=N)N)C(=O)N[C@@H](CO)C(=O)N[C@@H](CC(C)C)C(=O)NCC(=O)N[C@@H](CC(C)C)C(=O)N[C@@H](CC(C)C)C(=O)NCC(=O)N[C@@H](CCCCN)C(=O)N2 [scyllatoxin] (H-AFCNLRMCQLSCRSLGLLGKCIGDKCECVKH-NH2; disulfide 3-21, 8-26, 12-28)			IC50: 1.1 nM
iberiotoxin (QFTDVDCSVSKECWSVCKDLFGVDRGKCMGKKCRCYQ) [toxin isolated from Mesobuthus tamulus]		no effect	
noxiustoxin (TIINVKCTSPKQCSKPCKELYGSSAGAKCMNGKCKCYNN)		no effect	
α-dendrotoxin (QPRRKLCILHRNPGRCYDKIPAFYYNQKKKQCERFDWSGCGGNSNRFKTIEECRRTCIG)		no effect	
